Molecules are shown by their SMILES.

One assay relates to M.tb-CM. Also on record: method as in doi:10.1039/C1MD00148E. The conditions noted are these: read-out: IC50, inhibition of M.tb-CM; cited from earlier work.
In assay [1] the test system is intracellular MDR-M.tb H37Rv (ATCC 35825) in activated THP-1 macrophages. As to the kind of experiment: Intracellular efficacy THP-1 macrophage assay, MDR-M.tb ATCC 35825. Type of assay: cell-based, Mycobacterium tuberculosis. The conditions noted are these: Fig 4E; day 7; DRILS-1398 15 μM, rifampicin 19.45 μM, alone or combined.
Assay [2] concerns intracellular M.tb H37Rv (ATCC 27294) in activated THP-1 macrophages. As to the kind of experiment: Intracellular efficacy THP-1 macrophage assay, M.tb H37Rv ATCC 27294. The conditions noted are these: Fig 4D, DRILS-1398 15 μM, rifampicin 19.45 μM, alone or combined.
Experimental: The THP-1 cells were activated with PMA (phorbol 12-myristate-13-acetate) for differentiation into macrophages. After 72 hr of activation, the THP-1 macrophages were infected with M.tb H37Rv strain (ATCC-27294 and ATCC-35825) at a multiplicity of infection (MOI) of 1:10.[34]^,[35] The macrophage infection was allowed for 2 hrs at 37°C with 5% CO2. The media containing M.tb was discarded, and macrophage monolayers were washed twice with phosphate-buffered saline to remove the extracellular bacteria and replenished with fresh, complete RPMI. The M.tb-infected macrophages were exposed to compounds by transferring 200 μL of fresh media containing the respective concentrations of the compounds. Duplicate wells were lysed (0.05% SDS) at specific time points and enumerated to estimate the numbers of intracellular M.tb 2 hr post-infection. The 0.1 mL of lysate was serially diluted and plated onto Middle brook 7H11 agar plates for enumeration (read after 3 to 4 weeks) of live M.tb after compound treatment. After 3 and 7 day exposure to the compounds, the cells were treated the same way, and the live M.tb was enumerated. The efficacy of the test compound was assessed by comparing the M.tb counts from the respective days to day 0 and day 7.
A further assay deals with M.tb H37Rv. As to the kind of experiment: Histopathology (H&E, ZN stain) of lungs of infected mice.
Setting [3] is: Table S4, lung of infected treated mice.

Turning to `CS(=O)(=O)Nc1ccc(F)cc1-c1cc2cc(F)ccc2n1S(C)(=O)=O` [B], in the assay on M.tb-CM, the IC50 is approximately 17 µM.
For `CO[C@H]1/C=C/O[C@@]2(C)Oc3c(C)c(O)c4c(O)c(c(/C=N/N5CCN(C)CC5)c(O)c4c3C2=O)NC(=O)/C(C)=C\C=C\[C@H](C)[C@H](O)[C@@H](C)[C@@H](O)[C@@H](C)[C@H](OC(C)=O)[C@@H]1C` [Rifampicin, reference compound], the entries for the “cfu reduction vs day 7 control, combination study” value in assay [1] and in assay [2] (day 7) were 1.96 log10 cfu/mL and 2.28 log10 cfu/mL, respectively. Moreover, the “cfu reduction vs day 3 control, combination study” value in assay [2] (day 3) is reported as 1.26 log10 cfu/mL.
Turning to `NNC(=O)c1ccncc1` [Isoniazid, reference compound], the “Granuloma in the lung” value in the assay with M.tb H37Rv (DRILS-1398 and DRILS-1398(F) 30 mg/kg, isoniazid 5 mg/kg) was “no signs of granuloma”. Besides, in the assay on M.tb H37Rv (setting [3]), the Granuloma result is given as “-” and the “ZN stain (Acid Fast Bacilli)” value was “+”. Further, the “Acid-fast bacilli load in lung, ZN staining” value in the assay on M.tb H37Rv (vs infected mice without drug) is given as “minimal presence of bacilli”.

The record behind these values is article PMC12144419, “Early preclinical development of Mycobacteriumtuberculosis amino acid biosynthesis pathway inhibitor DRILS-1398 as a potential anti-TB drug” (iScience, 2025).
